{"source": "patent US10543212B2", "about": "“Substituted amines for treating cardiac diseases” (Cardurion Pharmaceuticals, LLC, priority 2017, dated 2020)"}
{"molecular_target": "T1, Full-length, GST-tagged, human CaMKIIδ (Homo sapiens, UniProt Q13557)", "T1 construct": "Full-Length, Glutathione-S-Transferase(GST)-Tagged, Human CaMKIIδ was purchased from Carna Biosciences; purchased Carna Biosciences 02-111", "T1 sequence (Q13557 1-478 isoform Q13557-12)": "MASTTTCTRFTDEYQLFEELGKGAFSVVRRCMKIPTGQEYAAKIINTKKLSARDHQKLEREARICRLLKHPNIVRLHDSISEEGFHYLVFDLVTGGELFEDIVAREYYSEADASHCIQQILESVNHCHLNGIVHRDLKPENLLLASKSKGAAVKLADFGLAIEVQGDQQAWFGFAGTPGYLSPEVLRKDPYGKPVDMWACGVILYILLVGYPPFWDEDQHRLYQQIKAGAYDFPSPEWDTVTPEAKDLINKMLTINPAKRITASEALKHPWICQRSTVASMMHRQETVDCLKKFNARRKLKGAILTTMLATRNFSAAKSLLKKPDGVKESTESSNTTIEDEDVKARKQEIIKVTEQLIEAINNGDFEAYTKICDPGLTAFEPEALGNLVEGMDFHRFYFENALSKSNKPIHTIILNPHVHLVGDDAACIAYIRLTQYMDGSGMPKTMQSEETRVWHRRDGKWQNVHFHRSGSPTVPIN", "assay": "CaMKIIδ binding assay (TR-FRET with BODIPY-labeled probe ligand)", "settings": "Table 2; CaMKIIδ binding assay, activity given as class A/B/C", "outline": "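Compounds were tested as 4-fold, eight-point series for 1 hr at room temperature, and IC50 was obtained by logistic fitting against a 3 μM parent-compound control. Signal came from displacement of a 300 nM BODIPY ligand from 0.5 nM GST-CaMKIIδ, detected via Tb-anti-GST in calmodulin/Ca2+ (pH 7.6).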", "units": {"IC50": "nM"}}
{"smiles": "Cc1cc(Nc2ncc(-c3ccc(Cl)c(O[C@@H](C)Cn4cnnn4)c3)cn2)n(C)n1", "note": "[Example 751, (S)-5-(3-((1-(1H-tetrazol-1-yl)propan-2-yl)oxy)-4-chlorophenyl)-N-(1,3-dimethyl-1H-pyrazol-5-yl)pyrimidin-2-amine]", "IC50": "10 to 100"}
{"smiles": "C[C@@H](Cn1cnnn1)Oc1cc(-c2cnc(Nc3sc4c(c3C#N)CCCC4)nc2)ccc1Cl", "note": "[Example 752, (S)-2-((5-(3-((1-(1H-tetrazol-1-yl)propan-2-yl)oxy)-4-chlorophenyl)pyrimidin-2-yl)amino)-4,5,6,7-tetrahydrobenzo[b]thiophene-3-carbonitrile]", "IC50": "10 to 100"}
{"smiles": "C[C@@H](Cn1cnnn1)Oc1cc(-c2cnc(Nc3sc4c(c3C#N)CCC4)nc2)ccc1Cl", "note": "[Example 753, (S)-2-((5-(3-((1-(1H-tetrazol-1-yl)propan-2-yl)oxy)-4-chlorophenyl)pyrimidin-2-yl)amino)-5,6-dihydro-4H-cyclopenta[b]thiophene-3-carbonitrile]", "IC50": "≥ 100"}
{"smiles": "C[C@@H](Cn1cnnn1)Oc1cc(-c2cnc(Nc3ccnn3-c3ccccc3)nc2)ccc1Cl", "note": "[Example 754, (S)-5-(3-((1-(1H-tetrazol-1-yl)propan-2-yl)oxy)-4-chlorophenyl)-N-(1-phenyl-1H-pyrazol-5-yl)pyrimidin-2-amine]", "IC50": "10 to 100"}
{"smiles": "C[C@@H](Cn1cnnn1)Oc1cc(-c2cnc(Nc3ccn(C)n3)nc2)ccc1Cl", "note": "[Example 755, (S)-5-(3-((1-(1H-tetrazol-1-yl)propan-2-yl)oxy)-4-chlorophenyl)-N-(1-methyl-1H-pyrazol-3-yl)pyrimidin-2-amine]", "IC50": "10 to 100"}
{"smiles": "C[C@@H](Cn1cnnn1)Oc1cc(-c2cnc(Nc3cn(CC(F)(F)F)nc3OCC(F)(F)F)nc2)ccc1Cl", "note": "[Example 756, (S)-5-(3-((1-(1H-tetrazol-1-yl)propan-2-yl)oxy)-4-chlorophenyl)-N-(3-(2,2,2-trifluoroethoxy)-1-(2,2,2-trifluoroethyl)-1H-pyrazol-4-yl)pyrimidin-2-amine]", "IC50": "10 to 100"}
{"smiles": "C[C@@H](Cn1cnnn1)Oc1cc(-c2cnc(Nc3cn([C@@H]4C[C@H]5CC[C@@H](C4)N5C4CC4)nc3C(F)(F)F)nc2)ccc1Cl", "note": "[Example 757, 5-(3-(((S)-1-(1H-tetrazol-1-yl)propan-2-yl)oxy)-4-chlorophenyl)-N-(1-((1R,3s,5S)-8-cyclopropyl-8-azabicyclo[3.2.1]octan-3-yl)-3-(trifluoromethyl)-1H-pyrazol-4-yl)pyrimidin-2-amine]", "IC50": "< 10"}
{"smiles": "C[C@@H](Cn1cnnn1)Oc1cc(-c2cnc(Nc3cn([C@@H]4C[C@H]5CC[C@@H](C4)N5C)nc3C(F)(F)F)nc2)ccc1Cl", "note": "[Example 758, 5-(3-(((S)-1-(1H-tetrazol-1-yl)propan-2-yl)oxy)-4-chlorophenyl)-N-(1-((1R,3s,5S)-8-methyl-8-azabicyclo[3.2.1]octan-3-yl)-3-(trifluoromethyl)-1H-pyrazol-4-yl)pyrimidin-2-amine]", "IC50": "< 10"}
{"smiles": "C[C@@H](Cn1cnnn1)Oc1cc(-c2cnc(Nc3cn(C)nc3OCC(F)(F)F)nc2)ccc1Cl", "note": "[Example 759, (S)-5-(3-((1-(1H-tetrazol-1-yl)propan-2-yl)oxy)-4-chlorophenyl)-N-(1-methyl-3-(2,2,2-trifluoroethoxy)-1H-pyrazol-4-yl)pyrimidin-2-amine]", "IC50": "< 10"}
{"smiles": "C[C@@H](Cn1cnnn1)Oc1cc(-c2cnc(Nc3cn(CC(F)F)nc3OCC(F)(F)F)nc2)ccc1Cl", "note": "[Example 760, (S)-5-(3-((1-(1H-tetrazol-1-yl)propan-2-yl)oxy)-4-chlorophenyl)-N-(1-(2,2-difluoroethyl)-3-(2,2,2-trifluoroethoxy)-1H-pyrazol-4-yl)pyrimidin-2-amine]", "IC50": "< 10"}
{"smiles": "C[C@@H](Cn1cnnn1)Oc1cc(-c2cnc(Nc3cn([C@@H](C)C(=O)N4CCOCC4)nc3C(F)(F)F)nc2)ccc1Cl", "note": "[Example 761, (S)-2-(4-((5-(3-(((S)-1-(1H-tetrazol-1-yl)propan-2-yl)oxy)-4-chlorophenyl)pyrimidin-2-yl)amino)-3-(trifluoromethyl)-1H-pyrazol-1-yl)-1-morpholinopropan-1-one]", "IC50": "10 to 100"}
{"smiles": "C[C@@H](Cn1cnnn1)Oc1cc(-c2cnc(Nc3cc(N4CC(CN5CCOCC5)C4)ccc3F)nc2)ccc1C#N", "note": "[Example 762, (S)-2-((1-(1H-tetrazol-1-yl)propan-2-yl)oxy)-4-(2-((2-fluoro-5-(3-(morpholinomethyl)azetidin-1-yl)phenyl)amino)pyrimidin-5-yl)benzonitrile]", "IC50": "< 10"}
{"smiles": "C[C@@H](Cn1cnnn1)Oc1cc(-c2cnc(Nc3cn(C4CCCCO4)nc3OCC(F)(F)F)nc2)ccc1C#N", "note": "(stereo partly drawn) [Example 763, 2-(((S)-1-(1H-tetrazol-1-yl)propan-2-yl)oxy)-4-(2-((1-(tetrahydro-2H-pyran-2-yl)-3-(2,2,2-trifluoroethoxy)-1H-pyrazol-4-yl)amino)pyrimidin-5-yl)benzonitrile]", "IC50": "< 10"}
{"smiles": "CCn1cc(Nc2ncc(-c3ccc(C#N)c(O[C@@H](C)Cn4cnnn4)c3)cn2)c(OCC(F)(F)F)n1", "note": "[Example 764, (S)-2-((1-(1H-tetrazol-1-yl)propan-2-yl)oxy)-4-(2-((1-ethyl-3-(2,2,2-trifluoroethoxy)-1H-pyrazol-4-yl)amino)pyrimidin-5-yl)benzonitrile]", "IC50": "< 10"}
{"smiles": "C[C@@H](Cn1cnnn1)Oc1cc(-c2cnc(Nc3cn(C)nc3OCC(F)(F)F)nc2)ccc1C#N", "note": "[Example 765, (S)-2-((1-(1H-tetrazol-1-yl)propan-2-yl)oxy)-4-(2-((1-methyl-3-(2,2,2-trifluoroethoxy)-1H-pyrazol-4-yl)amino)pyrimidin-5-yl)benzonitrile]", "IC50": "< 10"}
{"smiles": "C[C@@H](Cn1cnnn1)Oc1cc(-c2cnc(Nc3cn(C4CCN(C(=O)OC(C)(C)C)CC4)nc3C(F)F)nc2)ccc1Cl", "note": "[Example 766, tert-butyl (S)-4-(4-((5-(3-((1-(1H-tetrazol-1-yl)propan-2-yl)oxy)-4-chlorophenyl)pyrimidin-2-yl)amino)-3-(difluoromethyl)-1H-pyrazol-1-yl)piperidine-1-carboxylate]", "IC50": "10 to 100"}
{"smiles": "C[C@@H](Cn1cnnn1)Oc1cc(-c2cnc(Nc3cn(CC(F)F)nc3OCC(F)(F)F)nc2)ccc1C#N", "note": "[Example 767, (S)-2-((1-(1H-tetrazol-1-yl)propan-2-yl)oxy)-4-(2-((1-(2,2-difluoroethyl)-3-(2,2,2-trifluoroethoxy)-1H-pyrazol-4-yl)amino)pyrimidin-5-yl)benzonitrile]", "IC50": "< 10"}
{"smiles": "C[C@@H](Cn1cnnn1)Oc1cc(-c2cnc(Nc3cc(N4CCN(C5CCOCC5)CC4)ccc3OC(F)(F)F)nc2)ccc1Cl", "note": "[Example 768, (S)-5-(3-((1-(1H-tetrazol-1-yl)propan-2-yl)oxy)-4-chlorophenyl)-N-(5-(4-(tetrahydro-2H-pyran-4-yl)piperazin-1-yl)-2-(trifluoromethoxy)phenyl)pyrimidin-2-amine]", "IC50": "< 10"}
{"smiles": "C[C@@H](Cn1cnnn1)Oc1cc(-c2cnc(Nc3cn(C4CCN(C5CCOCC5)CC4)nc3C(F)F)nc2)ccc1Cl", "note": "[Example 769, (S)-5-(3-((1-(1H-tetrazol-1-yl)propan-2-yl)oxy)-4-chlorophenyl)-N-(3-(difluoromethyl)-1-(1-(tetrahydro-2H-pyran-4-yl)piperidin-4-yl)-1H-pyrazol-4-yl)pyrimidin-2-amine]", "IC50": "< 10"}
{"smiles": "COc1ncc(N2CCN(C3CCOCC3)CC2)cc1Nc1ncc(-c2ccc(Cl)c(O[C@@H](C)Cn3cnnn3)c2)cn1", "note": "[Example 770, (S)-5-(3-((1-(1H-tetrazol-1-yl)propan-2-yl)oxy)-4-chlorophenyl)-N-(2-methoxy-5-(4-(tetrahydro-2H-pyran-4-yl)piperazin-1-yl)pyridin-3-yl)pyrimidin-2-amine]", "IC50": "< 10"}
{"smiles": "C[C@@H](Cn1cnnn1)Oc1cc(-c2cnc(Nc3cn(C4CCNCC4)nc3C(F)F)nc2)ccc1Cl", "note": "[Example 771, (S)-5-(3-((1-(1H-tetrazol-1-yl)propan-2-yl)oxy)-4-chlorophenyl)-N-(3-(difluoromethyl)-1-(piperidin-4-yl)-1H-pyrazol-4-yl)pyrimidin-2-amine]", "IC50": "< 10"}
{"smiles": "C[C@@H](Cn1cnnn1)Oc1cc(-c2cnc(Nc3cn([C@H]4CC[C@@H](N5CCC5)CC4)nc3C(F)(F)F)nc2)ccc1C#N", "note": "[Example 773, 2-(((S)-1-(1H-tetrazol-1-yl)propan-2-yl)oxy)-4-(2-((1-(cis-4-(azetidin-1-yl)cyclohexyl)-3-(trifluoromethyl)-1H-pyrazol-4-yl)amino)pyrimidin-5-yl)benzonitrile]", "IC50": "< 10"}
{"smiles": "C[C@@H](Cn1cnnn1)Oc1cc(-c2cnc(Nc3cn(C4CC4)nc3OCC(F)(F)F)nc2)ccc1Cl", "note": "[Example 774, (S)-5-(3-((1-(1H-tetrazol-1-yl)propan-2-yl)oxy)-4-chlorophenyl)-N-(1-cyclopropyl-3-(2,2,2-trifluoroethoxy)-1H-pyrazol-4-yl)pyrimidin-2-amine]", "IC50": "< 10"}
{"smiles": "C[C@@H](Cn1cnnn1)Oc1cc(-c2cnc(Nc3cn([C@@H](C)CO)nc3OCC(F)(F)F)nc2)ccc1Cl", "note": "[Example 775, (S)-2-(4-((5-(3-(((S)-1-(1H-tetrazol-1-yl)propan-2-yl)oxy)-4-chlorophenyl)pyrimidin-2-yl)amino)-3-(2,2,2-trifluoroethoxy)-1H-pyrazol-1-yl)propan-1-ol]", "IC50": "< 10"}
{"smiles": "COCC(C)n1cc(Nc2ncc(-c3ccc(Cl)c(O[C@@H](C)Cn4cnnn4)c3)cn2)c(OCC(F)(F)F)n1", "note": "(stereo partly drawn) [Example 776, 5-(3-(((S)-1-(1H-tetrazol-1-yl)propan-2-yl)oxy)-4-chlorophenyl)-N-(1-(1-methoxypropan-2-yl)-3-(2,2,2-trifluoroethoxy)-1H-pyrazol-4-yl)pyrimidin-2-amine]", "IC50": "< 10"}
{"smiles": "C[C@@H](Cn1cnnn1)Oc1cc(-c2cnc(Nc3cn(C4CCCCNC4=O)nc3OCC(F)(F)F)nc2)ccc1Cl", "note": "(stereo partly drawn) [Example 777, 3-(4-((5-(3-(((S)-1-(1H-tetrazol-1-yl)propan-2-yl)oxy)-4-chlorophenyl)pyrimidin-2-yl)amino)-3-(2,2,2-trifluoroethoxy)-1H-pyrazol-1-yl)azepan-2-one]", "IC50": "< 10"}
